The structures appear in SMILES notation. A value given as a limit tells only on which side of the number the result lay.

One test has as its target LRRK2 wild type enzyme (Homo sapiens, UniProt Q5S007). Nature of the test: LRRK2 biochemical assay (LanthaScreen TR-FRET, LRRKtide substrate). As to conditions: LRRK2 inhibition; 3 nM LRRK2, 400 nM LRRKtide, 25 μM ATP, 120 min, 23° C. The method, then:
10 mM compound solution was prepared in DMSO. An 11-point, 3-fold dilution was performed, with highest concentration at 10 μM. A 10 mM compound DMSO solution was added to Labcyte LDV plate and the compound concentration of source plate was 10 mM. The 1 st compound concentration of Inter plate (Labcyte 384 well PP plate) was 4.938×10^−1 mM which was prepared by transferring 1.5 μL of 10 mM compound from source plate to 28.9 μL DMSO. The 2nd compound concentration of Inter plate was 1.829×10^−2 mM which was prepared by transferring 60 nL of 10 mM compound from source plate to 32.7 μL DMSO. The 3rd compound concentration of Inter plate was 6.774×10^−4 mM which was prepared by transferring 2.5 nL of 10 mM compound from source plate to 36.9 μL DMSO. 100 nL of reference compound was dispensed in column 1 for low control wells and 100 nL of DMSO in column 24 for high control wells. Compounds were dispensed to column 2 to 23 of assay plate and backfilled with DMSO to a total volume of 100 nL.
A 2×LRRK2 enzyme solution (final concentration 3 nM) was prepared in assay buffer (Tris-HCl pH8.0: 50 mM, MgCl2: 5 mM, EDTA: 1 mM, Brij-35: 0.01%, 2 mM DTT). A 2× substrate solution was prepared: LRRK2 tide substrate (final concentration 400 nM) and ATP (final concentration 25 μM) in assay buffer. 5 μL 2×LRRK2 enzyme solution was dispensed to each well in assay plate by Multidrop. Assay plate was spun at 1,000 rpm for 1 min and incubated for 15 min at 23° C. 5 μL 2×ATP/LRRKtide solution was dispensed to each well in assay plate by Multidrop. Assay plate was spun at 1,000 rpm for 1 min and incubated for 120 min at 23° C.
A 2× detection solution was prepared: Tb-pERM (pLRRKtide) antibody (final concentration 0.25 nM) and EDTA (final concentration 10 mM) in TR-FRET dilution buffer. 10 μL 2× detection solution was dispensed to each well in assay plate to stop kinase reaction by Multidrop. Assay plate was spun at 1,000 rpm for 1 min and incubate for 30 min at 23° C. Assay plate was then read on Envision configured for LanthaScreen® TR-FRET.
A general note: In TR-FRET formats the signal depends on donor and acceptor labels being close together.

The target in test [1] is T1, phosphorylation at Ser935 on wild type LRRK2 overexpressed in recombinant HEK-293T cells (Homo sapiens, UniProt Q5S007).
T1 construct: host or cells: HEK293T, transient transfection
Nature of the test: pS935 LRRK2 Cell Assay (HTRF). The class given is cell-based. As to conditions: LRRK2 inhibition; pS935 LRRK2 in transfected HEK293T cells, 2 hours compound incubation. An excerpt: The following protocol describes an in-vitro method for measuring phosphorylation at Ser935 on wild type LRRK2 overexpressed in recombinant HEK-293T cells. The method is based on HTRF technology, which combines Fluorescence Resonance Energy Transfer (FRET) with Time-Resolved measurement (TR). Phospho-LRRK2 (Ser935) is detected in a sandwich assay format using two different specific antibodies, one labelled with Eu^3+-Cryptate (donor) and the second with d2 (acceptor). When the fluorophores are in close proximity, excitation of the donor with a light source (flash lamp) stimulates FRET to the acceptor, which in turn fluoresces at a specific wavelength (665 nm). The fluorescence emission at 615 nm from the donor is also measured to allow ratiometric reduction of data. The specific signal is proportional to phospho-LRRK2 (Ser935).
Plasmid transient transfection: DMEM medium, FBS, DPBS, Trans-IT, OPTI-MEM reagents were allowed to warm to room temperature. HEK293T cells were cultured in DMEM+10% FBS complete medium in T150 flasks till around 80% confluency before transfection. Then cells were washed with 10 mL PBS and detached with 3 mL 0.25% typinsin. 30×10E6 HEK293T cells were seeded in DMEM+10% FBS complete medium to a 15 cm dish.
DNA, TransIT-LT1, OPTI-MEM complex were prepared: […] OPTI-MEM was added to a 15 mL cone tube, then […] plasmid was added to OPTI-MEM and mixed, followed by addition of 60 L TransIT-LT1 to the plasmid OPTI-MEM mixture and mixing. The resulting mixture was incubated for 15 minutes.
The above plasmid, DNA and OPTI-MEM mixture was added dropwise to the 15 cm dish, ensuring the drops were evenly distributed. The culture dish was gently rocked back and forth and from left to right to evenly distribute the complex. The transfected dish was incubated for 24 hours at 37° C., and 5% CO2.
Transfected HEK293T was collected in the 15 cm dish. Media was aspirated from tissue culture dish, and washed by dispensing 10 mL 1×DPBS into 15 cm dish. 1×DPBS was aspirated and 3 mL trypsin was dispensed to 15 cm dish. The dish was incubated with trypsin at room temperature for 3 min until the cells were detached. 10 mL of DMEM+10% FBS medium were added to 15 cm dish and triturated to ensure homogenous cell suspensions.
Homogenous cell suspensions were transferred to a 50 mL tube, and centrifuged for 5 minutes at 1,000 rmp/min. The supernatant was aspirated and resuspended with 20 mL complete medium. 1 mL of cell suspension was transferred for cell counting. The cell suspension was diluted to 2×10E5 cells/ml. 50 L cell suspensions were added to a 384-well plate. The plate was quick spun at 800 rpm for 1 minute, then incubate overnight at 37° C., 5% CO2.
Compound dispensing: compound was diluted (10 mM DMSO stock solution) and added to assay plate (top concentration: 10 μM, 3 fold serial dilution, 9 doses) with duplicates by Tecan liquid handler. The DMSO concentration of each well was normalized to 0.2%. Plates were quick spun at 1,000 rpm for 1 minute. Plates were incubated at 37° C., 5% CO2 for 2 hours.
1× lysis buffer solution supplemented with blocking reagent was prepared (e.g. 1 mL lysis buffer 4×+3 mL water+40 L stock blocking reagent 100×). Antibodies working solution was prepared by diluting 40-fold d2 and Cryptate antibodies with detection buffer (e.g. 1520 L detection buffer+40 L d2-antibody stock solution+[…] Cryptate-antibody stock solution).
After 2 hours incubation, cell plates were taken out from the incubator. Medium was removed by plate washer, then 16 µL of supplemented lysis buffer was added 1× to each well and incubated for 30 minutes at room temperature under shaking (800 rpm/min). 4 µL of antibodies working solution was added to each well, covered with a top seal and incubated overnight in 23° C. incubator.
HTRF signal was read (665 nm and 615 nm) on Wallac 2104 EnVision® multilabel reader. Data were analyzed by XL fit software.

Sequence of LRRK2 wild type enzyme (Q5S007 whole entry): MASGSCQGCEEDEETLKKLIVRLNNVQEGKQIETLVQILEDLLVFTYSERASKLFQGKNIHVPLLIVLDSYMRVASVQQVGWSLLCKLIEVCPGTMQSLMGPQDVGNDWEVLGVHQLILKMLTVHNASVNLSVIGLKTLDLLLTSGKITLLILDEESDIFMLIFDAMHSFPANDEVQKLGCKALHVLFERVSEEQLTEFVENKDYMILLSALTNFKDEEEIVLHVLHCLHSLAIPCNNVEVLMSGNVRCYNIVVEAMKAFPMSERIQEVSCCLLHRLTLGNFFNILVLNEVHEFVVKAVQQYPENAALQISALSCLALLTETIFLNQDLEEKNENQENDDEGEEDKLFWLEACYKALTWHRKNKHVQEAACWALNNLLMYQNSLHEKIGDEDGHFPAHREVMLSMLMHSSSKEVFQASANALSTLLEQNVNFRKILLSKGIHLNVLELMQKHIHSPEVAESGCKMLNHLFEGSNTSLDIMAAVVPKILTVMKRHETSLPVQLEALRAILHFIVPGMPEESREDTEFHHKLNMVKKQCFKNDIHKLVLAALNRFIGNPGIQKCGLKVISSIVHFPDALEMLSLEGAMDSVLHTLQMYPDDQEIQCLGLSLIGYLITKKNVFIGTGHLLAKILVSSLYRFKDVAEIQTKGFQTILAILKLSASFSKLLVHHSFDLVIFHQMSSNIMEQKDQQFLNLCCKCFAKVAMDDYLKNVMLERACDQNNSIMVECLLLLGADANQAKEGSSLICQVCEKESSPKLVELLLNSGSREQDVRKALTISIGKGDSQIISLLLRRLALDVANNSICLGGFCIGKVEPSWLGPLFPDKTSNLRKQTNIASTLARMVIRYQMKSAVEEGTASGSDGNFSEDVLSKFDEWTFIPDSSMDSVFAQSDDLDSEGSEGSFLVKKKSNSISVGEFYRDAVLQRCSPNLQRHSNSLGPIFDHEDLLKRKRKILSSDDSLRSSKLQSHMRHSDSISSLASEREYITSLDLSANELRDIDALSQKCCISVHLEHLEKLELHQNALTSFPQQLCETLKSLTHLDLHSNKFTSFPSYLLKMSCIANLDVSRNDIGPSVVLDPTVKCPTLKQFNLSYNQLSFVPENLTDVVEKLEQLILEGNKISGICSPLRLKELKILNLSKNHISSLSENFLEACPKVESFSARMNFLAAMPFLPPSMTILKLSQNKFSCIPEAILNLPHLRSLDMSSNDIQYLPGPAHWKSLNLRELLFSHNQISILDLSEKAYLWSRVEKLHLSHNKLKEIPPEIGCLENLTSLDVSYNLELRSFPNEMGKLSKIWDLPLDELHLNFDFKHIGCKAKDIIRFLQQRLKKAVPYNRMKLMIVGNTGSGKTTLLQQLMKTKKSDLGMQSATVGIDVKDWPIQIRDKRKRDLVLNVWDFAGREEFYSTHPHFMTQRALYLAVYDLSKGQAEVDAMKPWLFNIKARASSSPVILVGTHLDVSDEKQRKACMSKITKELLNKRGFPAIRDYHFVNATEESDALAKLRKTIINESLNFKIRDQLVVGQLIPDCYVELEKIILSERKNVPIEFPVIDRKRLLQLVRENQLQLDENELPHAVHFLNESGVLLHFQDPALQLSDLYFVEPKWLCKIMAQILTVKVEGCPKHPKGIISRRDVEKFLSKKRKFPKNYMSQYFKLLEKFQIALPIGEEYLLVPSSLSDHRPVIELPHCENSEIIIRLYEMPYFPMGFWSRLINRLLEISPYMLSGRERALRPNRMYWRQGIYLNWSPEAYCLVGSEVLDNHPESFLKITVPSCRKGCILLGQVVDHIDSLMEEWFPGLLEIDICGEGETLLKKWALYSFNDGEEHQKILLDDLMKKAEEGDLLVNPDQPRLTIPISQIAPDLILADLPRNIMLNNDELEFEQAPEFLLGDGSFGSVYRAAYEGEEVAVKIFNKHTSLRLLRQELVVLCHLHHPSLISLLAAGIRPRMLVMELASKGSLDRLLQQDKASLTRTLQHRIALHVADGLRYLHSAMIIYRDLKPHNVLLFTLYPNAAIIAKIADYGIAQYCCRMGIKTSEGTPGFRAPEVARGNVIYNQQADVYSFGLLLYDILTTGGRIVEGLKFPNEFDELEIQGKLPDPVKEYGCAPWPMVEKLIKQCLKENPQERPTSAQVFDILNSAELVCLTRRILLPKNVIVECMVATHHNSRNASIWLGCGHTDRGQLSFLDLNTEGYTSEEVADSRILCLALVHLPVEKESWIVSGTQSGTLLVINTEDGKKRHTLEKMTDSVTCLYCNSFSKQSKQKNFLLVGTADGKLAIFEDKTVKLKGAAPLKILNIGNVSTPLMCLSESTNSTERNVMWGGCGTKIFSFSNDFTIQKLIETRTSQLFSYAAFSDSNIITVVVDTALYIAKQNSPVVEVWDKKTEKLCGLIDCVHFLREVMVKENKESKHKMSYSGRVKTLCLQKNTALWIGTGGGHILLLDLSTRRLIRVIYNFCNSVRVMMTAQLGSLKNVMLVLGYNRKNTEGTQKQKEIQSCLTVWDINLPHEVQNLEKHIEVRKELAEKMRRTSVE
T1 sequence (Q5S007 whole entry): as above

On LRRK2 wild type enzyme, `C[C@@H]1C[C@H](n2c(Cn3cccc(C(=O)O)c3=O)nc3cnc4ccc(C#N)cc4c32)CCO1` [Compound 2, 1-({8-cyano-1-[(2R,4R)-2-methyloxan-4-yl]-1H-imidazo[4,5-c]quinolin-2-yl}methyl)-2-oxo-1,2-dihydropyridine-3-carboxylic acid] gave an IC50 of 106 nM.

With `C[C@@H]1C[C@H](n2c(Cc3n[nH]c(=O)o3)nc3cnc4ccc(C#N)cc4c32)CCO1` [Compound 7, 1-[(2R,4R)-2-methyloxan-4-yl]-2-[(5-oxo-4,5-dihydro-1,3,4-oxadiazol-2-yl)methyl]-1H-imidazo[4,5-c]quinoline-8-carbonitrile], the IC50 in test [1] is 466 nM; at LRRK2 wild type enzyme, 1.49 nM.

As to `C[C@@H]1C[C@H](n2c(Cc3noc(=O)[nH]3)nc3cnc4ccc(C#N)cc4c32)CCO1` [Compound 14, 1-[(2R,4R)-2-methyloxan-4-yl]-2-[(5-oxo-4,5-dihydro-1,2,4-oxadiazol-3-yl)methyl]-1H-imidazo[4,5-c]quinoline-8-carbonitrile], the IC50 in test [1] is more than 10000 nM; at LRRK2 wild type enzyme, 7.84 nM.

As to `C[C@@H]1C[C@H](n2c(Cc3noc(C4(S(C)(=O)=O)CC4)n3)nc3cnc4ccc(C#N)cc4c32)CCO1` [Compound 13, 2-{[5-(1-methanesulfonylcyclopropyl)-1,2,4-oxadiazol-3-yl]methyl}-1-[(2R,4R)-2-methyloxan-4-yl]-1H-imidazo[4,5-c]quioline-8-carbonitrile], the IC50 in test [1] came to 23.7 nM; against LRRK2 wild type enzyme, 0.449 nM.

`C[C@@H]1C[C@H](n2c(Cc3noc(N4CCN(C)C(=O)C4)n3)nc3cnc4ccc(C#N)cc4c32)CCO1` [Compound 9, 2-{[5-(4-methyl-3-oxopiperazin-1-yl)-1,2,4-oxadiazol-3-yl]methyl}-1-[(2R,4R)-2-methyloxan-4-yl]-1H-imidazo[4,5-c]quinoline-8-carbonitrile]: the IC50 was determined as 616 nM in test [1] and 1.69 nM at LRRK2 wild type enzyme.

Turning to `C[C@@H]1C[C@H](n2c(Cn3ccc(=O)c(C(=O)O)c3)nc3cnc4ccc(C#N)cc4c32)CCO1` [Compound 17, 1-({8-cyano-1-[(2R,4R)-2-methyloxan-4-yl]-1H-imidazo[4,5-c]quinolin-2-yl}methyl)-4-oxo-1,4-dihydropyridine-3-carboxylic acid], the IC50 worked out at 2950 nM in test [1] and 2.88 nM on LRRK2 wild type enzyme.

Take `C[C@@H]1CC(n2c(Cn3nccc3NS(C)(=O)=O)nc3cnc4ccc(C#N)cc4c32)CCO1` (stereo in doubt) [Compound 16, N-(1-{[8-cyano-1-(2-methyloxan-4-yl)-1H-imidazo[4,5-c]quinolin-2-yl]methyl}-1H-pyrazol-5-yl)methanesulfonamide]: the IC50 on LRRK2 wild type enzyme is 671 nM.

Regarding `C[C@@H]1C[C@H](n2c(Cc3noc(N4CCC(O)C4)n3)nc3cnc4ccc(C#N)cc4c32)CCO1` (mixture of isomers) [Compound 12, 2-({5-[(3RS)-3-hydroxypyrrolidin-1-yl]-1,2,4-oxadiazol-3-yl}methyl)-1-[(2R,4R)-2-methyloxan-4-yl]-1H-imidazo[4,5-c]quinoline-8-carbonitrile], the IC50 in test [1] came out at 811 nM; against LRRK2 wild type enzyme, 1.36 nM.

`C[C@@H]1C[C@H](n2c(Cc3noc(=O)[nH]3)nc3cnc4ccc(Cl)cc4c32)CCO1` [Compound 15, 3-({8-chloro-1-[(2R,4R)-2-methyloxan-4-yl]-1H-imidazo[4,5-c]quinolin-2-yl}methyl)-4,5-dihydro-1,2,4-oxadiazol-5-one]: the IC50 in test [1] was more than 10000 nM; against LRRK2 wild type enzyme it was 3.23 nM.

As for `C[C@@H]1C[C@H](n2c(Cc3ccc(NS(C)(=O)=O)nc3)nc3cnc4ccc(C#N)cc4c32)CCO1` [Compound 6, N-(5-{[8-cyano-1-(2-methyloxan-4-yl)-1H-imidazo[4,5-c]quinolin-2-yl]methyl}pyridin-2-yl)methanesulfonamide], the IC50 in test [1] came out at 4380 nM; against LRRK2 wild type enzyme, 3.94 nM.

`C[C@@H]1C[C@H](n2c(Cc3cn(C4CN(S(C)(=O)=O)C4)nn3)nc3cnc4ccc(C#N)cc4c32)CCO1` [Compound 5, 2-{[1-(1-methanesulfonylazetidin-3-yl)-1H-1,2,3-triazol-4-yl]methyl}-1-[(2R,4R)-2-methyloxan-4-yl]-1H-imidazo[4,5-c]quinoline-8-carbonitrile]: the IC50 in test [1] was determined as 324 nM; against LRRK2 wild type enzyme, 0.635 nM.

On to `COC(=O)c1cn(Cc2nc3cnc4ccc(C#N)cc4c3n2[C@@H]2CCO[C@H](C)C2)ccc1=O` [Compound 18, methyl 1-({8-cyano-1-[(2R,4R)-2-methyloxan-4-yl]-1H-imidazo[4,5-c]quinolin-2-yl}methyl)-4-oxo-1,4-dihydropyridine-3-carboxylate], for which the results for the IC50 (in test [1]; on LRRK2 wild type enzyme) were 7020 nM and 2.64 nM, respectively.

On to `COC(=O)c1cccn(Cc2nc3cnc4ccc(C#N)cc4c3n2[C@@H]2CCO[C@H](C)C2)c1=O` [Compound 19, methyl 1-({8-cyano-1-[(2R,4R)-2-methyloxan-4-yl]-1H-imidazo[4,5-c]quinolin-2-yl}methyl)-2-oxo-1,2-dihydropyridine-3-carboxylate], for which the IC50 in test [1] amounted to 592 nM; against LRRK2 wild type enzyme, 8.03 nM.

Take `C[C@@H]1C[C@H](n2c(Cc3ccc(S(C)(=O)=O)cn3)nc3cnc4ccc(C#N)cc4c32)CCO1` [Compound 22, 2-[(5-methanesulfonylpyridin-2-yl)methyl]-1-[(2R,4R)-2-methyloxan-4-yl]-1H-imidazo[4,5-c]quinoline-8-carbonitrile]: the IC50 against LRRK2 wild type enzyme turned out to be 0.579 nM.

`C[C@@H]1C[C@H](n2c(Cc3cc(CCS(C)(=O)=O)on3)nc3cnc4ccc(C#N)cc4c32)CCO1` [Compound 20, 2-{[5-(2-methanesulfonylethyl)-1,2-oxazol-3-yl]methyl}-1-[(2R,4R)-2-methyloxan-4-yl]-1H-imidazo[4,5-c]quinoline-8-carbonitrile] yielded an IC50 on LRRK2 wild type enzyme of 0.596 nM.

By IC50 is commonly meant the concentration needed to halve the response being measured.

Source of the values: patent publication US20250066356A1, “LRRK2 INHIBITORS” (INTERLINE THERAPEUTICS, INC., priority 2022, published 2025).
